Measurements from the supplement of paper PMC13380429.

How the values were obtained:
Conditions in all cases: 72 h
[1] = test system: Calu-3; assay: relative viability EC50 (midpoint between 100% and the lowest measured viability); higher = less toxic
[2] = test system: Caco-2; assay: as above
[3] = test system: Vero E6; assay: as above
[4] = test system: HepG2; assay: as above
[5] = test system: U2OS; assay: as above
[6] = test system: Calu-3; assay: cell viability relative to DMSO; higher = less toxic
[7] = test system: Caco-2; assay: as above
[8] = test system: Vero E6; assay: as above
[9] = test system: HepG2; assay: as above
[10] = test system: U2OS; assay: as above
[11] = test system: Calu-3; assay: drug sensitivity score (DSS) for viability; higher = more toxic; extreme values may be limits of the assay
[12] = test system: Caco-2; assay: as above
[13] = test system: Vero E6; assay: as above
[14] = test system: HepG2; assay: as above
[15] = test system: U2OS; assay: as above

Structure (SMILES)	relative viability EC50 [1] [µM]	relative viability EC50 [2] [µM]	relative viability EC50 [3] [µM]	relative viability EC50 [4] [µM]	relative viability EC50 [5] [µM]	cell viability ([6]; 1 nM) [%]	cell viability ([6]; 10 nM) [%]	cell viability ([6]; 100 nM) [%]	cell viability ([6]; 1000 nM) [%]	cell viability ([6]; 10000 nM) [%]	cell viability ([7]; 1 nM) [%]	cell viability ([7]; 10 nM) [%]	cell viability ([7]; 100 nM) [%]	cell viability ([7]; 1000 nM) [%]	cell viability ([7]; 10000 nM) [%]	cell viability ([8]; 1 nM) [%]	cell viability ([8]; 10 nM) [%]	cell viability ([8]; 100 nM) [%]	cell viability ([8]; 1000 nM) [%]	cell viability ([8]; 10000 nM) [%]	cell viability ([9]; 1 nM) [%]	cell viability ([9]; 10 nM) [%]	cell viability ([9]; 100 nM) [%]	cell viability ([9]; 1000 nM) [%]	cell viability ([9]; 10000 nM) [%]	cell viability ([10]; 1 nM) [%]	cell viability ([10]; 10 nM) [%]	cell viability ([10]; 100 nM) [%]	cell viability ([10]; 1000 nM) [%]	cell viability ([10]; 10000 nM) [%]	drug sensitivity score [11]	drug sensitivity score [12]	drug sensitivity score [13]	drug sensitivity score [14]	drug sensitivity score [15]
O=S(=O)(O)c1ccc(-c2c3nc(c(-c4ccc(S(=O)(=O)O)cc4)c4ccc([nH]4)c(-c4ccc(S(=O)(=O)O)cc4)c4nc(c(-c5ccc(S(=O)(=O)O)cc5)c5ccc2[nH]5)C=C4)C=C3)cc1 [TPPS4]	> 10	> 10	> 10	> 10	> 10	94.2	93.1	109	99	90.1	107	87.2	91.4	96.4	101	110	102	93.6	95.7	81.9	100	102	104	107	80.5	101	94.2	105	105	91.6	0	0	0.7	0.3	0
COc1ccc(CCN(C)CCc2ccc(OC)c(OC)c2)cc1OC [YS-035]	> 10	> 10	> 10	> 10	> 10	98.2	106	93.9	95.5	102	95.6	100	90.6	90.4	97.4	100	99.9	98.3	97.8	101	101	103	105	96.3	110	99.3	106	96.7	99.9	96.6	0	0	0	0	0
CCN(C(C)=O)c1cccc(-c2ccnc3c(C#N)cnn23)c1 [ZALEPLON]	> 10	> 10	> 10	> 10	> 10	93.9	96.7	96.7	86.1	90.7	96.6	102	100	104	96.4	97.5	99.2	99.3	101	95	90.5	95.6	91	105	89.3	105	104	102	103	96	0	0	0	0	0
CC(=O)Oc1ccccc1C(=O)Oc1ccccc1C(=O)O [acetylsalicylsalicylic-acid]	> 10	> 10	> 10	> 10	> 10	95.3	78.8	99.3	97	91.9	103	96.1	101	101	103	101	101	102	95.9	99.9	100	106	100	108	92.4	96.1	96.8	103	104	106	0	0	0	0	0
